# Test results from patent US8192962B2, “Processes for detecting toxic substances” (Daikin Industries, Ltd., priority 2001, dated 2012).
# Test system: DNA repair protein genes
# Experiment: DNA chip mRNA expression in yeast, DNA repair protein genes (Table 3)
# Format: cell-based, Saccharomyces cerevisiae S288C
# Conditions: incubated two hours, concentrations as in the 1st table
# Method in brief: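 Value is the scanned fluorescence intensity ratio of exposed versus chemical-free cells. Log-phase S288C yeast in YPD at 25° C. received one toxic substance for two hours, dosed to slow growth without killing; Cy3/Cy5-labeled cDNA from oligo-dT-purified mRNA was hybridized to a whole-genome chip at 65° C.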
smiles,measurement,setting,value
"O=[N+]([O-])c1cc[n+]([O-])c2ccccc12 [(5), 4-nitroquinolin-N-oxide]",The level of expressed mRNA in the presence of chemical substance/The level of expressed mRNA in the absence of chemical substance,yeast gene YAL015C,1.1
same,The level of expressed mRNA in the presence of chemical substance/The level of expressed mRNA in the absence of chemical substance,yeast gene YAR007C,1.5
same,The level of expressed mRNA in the presence of chemical substance/The level of expressed mRNA in the absence of chemical substance,yeast gene YBL019W,1.0
same,The level of expressed mRNA in the presence of chemical substance/The level of expressed mRNA in the absence of chemical substance,yeast gene YBR073W,1.2
same,The level of expressed mRNA in the presence of chemical substance/The level of expressed mRNA in the absence of chemical substance,yeast gene YBR272C,1.1
same,The level of expressed mRNA in the presence of chemical substance/The level of expressed mRNA in the absence of chemical substance,yeast gene YCR014C,1.2
same,The level of expressed mRNA in the presence of chemical substance/The level of expressed mRNA in the absence of chemical substance,yeast gene YDL017W,1.2
same,The level of expressed mRNA in the presence of chemical substance/The level of expressed mRNA in the absence of chemical substance,yeast gene YDL059C,1.2
same,The level of expressed mRNA in the presence of chemical substance/The level of expressed mRNA in the absence of chemical substance,yeast gene YDL200C,1.1
same,The level of expressed mRNA in the presence of chemical substance/The level of expressed mRNA in the absence of chemical substance,yeast gene YDR054C,0.7
same,The level of expressed mRNA in the presence of chemical substance/The level of expressed mRNA in the absence of chemical substance,yeast gene YDR369C,1.0
same,The level of expressed mRNA in the presence of chemical substance/The level of expressed mRNA in the absence of chemical substance,yeast gene YEL019C,0.9
same,The level of expressed mRNA in the presence of chemical substance/The level of expressed mRNA in the absence of chemical substance,yeast gene YEL037C,0.5
same,The level of expressed mRNA in the presence of chemical substance/The level of expressed mRNA in the absence of chemical substance,yeast gene YER162C,0.9
same,The level of expressed mRNA in the presence of chemical substance/The level of expressed mRNA in the absence of chemical substance,yeast gene YFL014W,1.0
same,The level of expressed mRNA in the presence of chemical substance/The level of expressed mRNA in the absence of chemical substance,yeast gene YGL058W,1.0
same,The level of expressed mRNA in the presence of chemical substance/The level of expressed mRNA in the absence of chemical substance,yeast gene YGL091C,0.8
same,The level of expressed mRNA in the presence of chemical substance/The level of expressed mRNA in the absence of chemical substance,yeast gene YGL127C,1.3
same,The level of expressed mRNA in the presence of chemical substance/The level of expressed mRNA in the absence of chemical substance,yeast gene YGL163C,1.5
same,The level of expressed mRNA in the presence of chemical substance/The level of expressed mRNA in the absence of chemical substance,yeast gene YGL249W,1.1
same,The level of expressed mRNA in the presence of chemical substance/The level of expressed mRNA in the absence of chemical substance,yeast gene YGR180C,2.0
same,The level of expressed mRNA in the presence of chemical substance/The level of expressed mRNA in the absence of chemical substance,yeast gene YGR231C,1.3
same,The level of expressed mRNA in the presence of chemical substance/The level of expressed mRNA in the absence of chemical substance,yeast gene YGR258C,1.5
same,The level of expressed mRNA in the presence of chemical substance/The level of expressed mRNA in the absence of chemical substance,yeast gene YHR164C,0.9
same,The level of expressed mRNA in the presence of chemical substance/The level of expressed mRNA in the absence of chemical substance,yeast gene YIL036W,0.9
same,The level of expressed mRNA in the presence of chemical substance/The level of expressed mRNA in the absence of chemical substance,yeast gene YIL072W,1.5
same,The level of expressed mRNA in the presence of chemical substance/The level of expressed mRNA in the absence of chemical substance,yeast gene YIL143C,0.8
same,The level of expressed mRNA in the presence of chemical substance/The level of expressed mRNA in the absence of chemical substance,yeast gene YIL153W,1.0
same,The level of expressed mRNA in the presence of chemical substance/The level of expressed mRNA in the absence of chemical substance,yeast gene YIR002C,1.2
same,The level of expressed mRNA in the presence of chemical substance/The level of expressed mRNA in the absence of chemical substance,yeast gene YJL026W,1.7
same,The level of expressed mRNA in the presence of chemical substance/The level of expressed mRNA in the absence of chemical substance,yeast gene YJR046W,0.8
same,The level of expressed mRNA in the presence of chemical substance/The level of expressed mRNA in the absence of chemical substance,yeast gene YJR052W,1.0
same,The level of expressed mRNA in the presence of chemical substance/The level of expressed mRNA in the absence of chemical substance,yeast gene YKL145W,1.4
same,The level of expressed mRNA in the presence of chemical substance/The level of expressed mRNA in the absence of chemical substance,yeast gene YLR103C,1.0
same,The level of expressed mRNA in the presence of chemical substance/The level of expressed mRNA in the absence of chemical substance,yeast gene YLR233C,1.2
same,The level of expressed mRNA in the presence of chemical substance/The level of expressed mRNA in the absence of chemical substance,yeast gene YLR288C,1.7
same,The level of expressed mRNA in the presence of chemical substance/The level of expressed mRNA in the absence of chemical substance,yeast gene YML032C,1.0
same,The level of expressed mRNA in the presence of chemical substance/The level of expressed mRNA in the absence of chemical substance,yeast gene YML058W,0.6
same,The level of expressed mRNA in the presence of chemical substance/The level of expressed mRNA in the absence of chemical substance,yeast gene YMR035W,0.8
same,The level of expressed mRNA in the presence of chemical substance/The level of expressed mRNA in the absence of chemical substance,yeast gene YMR072W,1.7
same,The level of expressed mRNA in the presence of chemical substance/The level of expressed mRNA in the absence of chemical substance,yeast gene YMR096W,1.0
same,The level of expressed mRNA in the presence of chemical substance/The level of expressed mRNA in the absence of chemical substance,yeast gene YMR284W,0.8
same,The level of expressed mRNA in the presence of chemical substance/The level of expressed mRNA in the absence of chemical substance,yeast gene YNL213C,1.3
same,The level of expressed mRNA in the presence of chemical substance/The level of expressed mRNA in the absence of chemical substance,yeast gene YNL250W,0.8
same,The level of expressed mRNA in the presence of chemical substance/The level of expressed mRNA in the absence of chemical substance,yeast gene YNL261W,0.7
same,The level of expressed mRNA in the presence of chemical substance/The level of expressed mRNA in the absence of chemical substance,yeast gene YNL312W,1.4
same,The level of expressed mRNA in the presence of chemical substance/The level of expressed mRNA in the absence of chemical substance,yeast gene YOL043C,1.2
same,The level of expressed mRNA in the presence of chemical substance/The level of expressed mRNA in the absence of chemical substance,yeast gene YOR005C,1.3
same,The level of expressed mRNA in the presence of chemical substance/The level of expressed mRNA in the absence of chemical substance,yeast gene YOR386W,1.2
same,The level of expressed mRNA in the presence of chemical substance/The level of expressed mRNA in the absence of chemical substance,yeast gene YPL022W,0.8
same,The level of expressed mRNA in the presence of chemical substance/The level of expressed mRNA in the absence of chemical substance,yeast gene YPL164C,1.2
same,The level of expressed mRNA in the presence of chemical substance/The level of expressed mRNA in the absence of chemical substance,yeast gene YPL194W,1.3
same,The level of expressed mRNA in the presence of chemical substance/The level of expressed mRNA in the absence of chemical substance,yeast gene YPR025C,1.6
